Test results published in ChEMBL document CHEMBL5532659, “Design, Synthesis, and Evaluation of Cephamycin-Based Antisporulation Agents targeting Clostridioides difficile” (J Med Chem, 2024).
Values after ≈ are worked out from the molar mass of the structure shown. Active and inactive are the calls of the source. No cut-off for these calls is given here.

Key:
Acinetobacter baumannii = test: Antimicrobial activity against Acinetobacter baumannii ATCC 19603 assessed as microbial growth inhibition incubated for 18 hrs; format: functional
Clostridioides difficile [1] = test: Antimicrobial activity against Clostridium difficile assessed as microbial growth inhibition incubated for 18 hrs; format: functional
Cryptococcus neoformans = test: Antimicrobial activity against Cryptococcus neoformans ATCC 208821 assessed as microbial growth inhibition incubated for 36 hrs by resazurin dye based assay; format: functional
Staphylococcus aureus = test: Antimicrobial activity against methicillin-resistant Staphylococcus aureus ATCC 43300 assessed as microbial growth inhibition incubated for 18 hrs; format: functional
[2] = Inhibition of Clostridium difficile SpoVD using Boc-FL as substrate preincubated for 30 mins followed by substrate addition measured after 30 mins by FP assay; parameters: species or system Clostridioides difficile
Klebsiella pneumoniae = test: Antimicrobial activity against multidrug-resistant Klebsiella pneumoniae ATCC 700603 assessed as microbial growth inhibition incubated for 18 hrs; format: functional
Candida albicans = test: Antimicrobial activity against Candida albicans ATCC 90028 assessed as microbial growth inhibition incubated for 36 hrs by resazurin dye based assay; format: functional
Erythrocyte = test: Hemolytic activity in human RBC incubated for 70 mins by absorbance based assay; format: toxicity, cell-based; conditions: 1.167 h
Escherichia coli = test: Antimicrobial activity against Escherichia coli ATCC 25922 assessed as microbial growth inhibition incubated for 18 hrs; format: functional
[3] = Cytotoxicity against HEK293 cells incubated for 20 hrs by resazurin dye based assay; format: toxicity, cell-based; conditions: human
Pseudomonas aeruginosa = test: Antimicrobial activity against Pseudomonas aeruginosa ATCC 27853 assessed as microbial growth inhibition incubated for 18 hrs; format: functional
Clostridioides difficile [4] = test: Anti-sporulation activity against Clostridium difficile M7404 assessed as fold reduction in spore count incubated overnight by absorbance based assay relative to control; format: functional
Clostridioides difficile [5] = test: Anti-sporulation activity against Clostridium difficile M7404 infected in C57BL/6J mouse model assessed as reduction in spore shedding in faeces at 50 ug/ml pre-infected for 6 hrs followed by compound treatment measured for 2 to 4 days post-infection; format: functional, organism-based; conditions: dose 50.0 µg/ml, time 42-90 hrs

Row | SMILES | MIC50 (Acinetobacter baumannii) | MIC50 (Clostridioides difficile [1]) | MIC50 (Cryptococcus neoformans) | MIC50 (Staphylococcus aureus) | IC50 [2] | MIC50 (Klebsiella pneumoniae) | MIC50 (Candida albicans) | HC10 (Erythrocyte) | MIC50 (Escherichia coli) | CC50 at 20 h [3] | MIC50 (Pseudomonas aeruginosa) | fold change (FC) (Clostridioides difficile [4]) | Activity (Clostridioides difficile [5])
1 | CO[C@@]1(NC(=O)Cn2cc(-c3ccc(C(=O)O)cc3)nn2)C(=O)N2C(C(=O)O)=C(CSc3nnnn3C)CS[C@@H]21 | > 32 µg/mL | 10 µg/mL (≈ 17 µM) | > 32 µg/mL | 32 µg/mL (≈ 54.5 µM) | 115 nM | 32 µg/mL (≈ 54.5 µM) | > 32 µg/mL | > 32 µg/mL | 32 µg/mL (≈ 54.5 µM) | > 32 µg/mL | > 32 µg/mL | 1000 | –
2 | CO[C@@]1(NC(=O)Cn2cc(C3CCCCC3)nn2)C(=O)N2C(C(=O)O)=C(CSc3nnnn3C)CS[C@@H]21 | > 32 µg/mL | 5 µg/mL (≈ 9.1 µM) | > 32 µg/mL | 32 µg/mL (≈ 58.2 µM) | 90 nM | > 32 µg/mL | > 32 µg/mL | 10 µg/mL | 32 µg/mL (≈ 58.2 µM) | > 32 µg/mL | > 32 µg/mL | >100000 | –
3 | CO[C@@]1(NC(=O)Cn2cc(-c3ccc4ccccc4c3)nn2)C(=O)N2C(C(=O)O)=C(CSc3nnnn3C)CS[C@@H]21 | > 32 µg/mL | 20 µg/mL (≈ 33.7 µM) | > 32 µg/mL | 32 µg/mL (≈ 53.9 µM) | 54 nM | > 32 µg/mL | > 32 µg/mL | > 32 µg/mL | > 32 µg/mL | > 32 µg/mL | > 32 µg/mL | >100000 | –
4 | CO[C@@]1(NC(=O)Cn2cc(C(C)(C)O)nn2)C(=O)N2C(C(=O)O)=C(CSc3nnnn3C)CS[C@@H]21 | > 32 µg/mL | 40 µg/mL (≈ 76.1 µM) | > 32 µg/mL | 32 µg/mL (≈ 60.9 µM) | – | 32 µg/mL (≈ 60.9 µM) | > 32 µg/mL | 17 µg/mL | 32 µg/mL (≈ 60.9 µM) | 0.7 µg/mL (≈ 1.33 µM) | > 32 µg/mL | 100 | –
5 | CO[C@@]1(NC(=O)Cn2cc(-c3ccc(C#N)cc3)nn2)C(=O)N2C(C(=O)O)=C(CSc3nnnn3C)CS[C@@H]21 | > 32 µg/mL | > 40 µg/mL | > 32 µg/mL | > 32 µg/mL | 72 nM | > 32 µg/mL | > 32 µg/mL | > 32 µg/mL | 32 µg/mL (≈ 56.3 µM) | > 32 µg/mL | > 32 µg/mL | >100000 | –
6 | CO[C@@]1(NC(=O)C2SC(=C(C(N)=O)C(=O)O)S2)C(=O)N2C(C(=O)O)=C(CSc3nnnn3C)CS[C@@H]21 (some centres undefined) [CEFOTETAN] | > 32 µg/mL | 20 µg/mL (≈ 34.7 µM) | > 32 µg/mL | > 32 µg/mL | 15 nM | > 32 µg/mL | > 32 µg/mL | > 32 µg/mL | 4 µg/mL (≈ 6.95 µM) | > 32 µg/mL | > 32 µg/mL | 10000 | –
7 | CO[C@@]1(NC(=O)Cn2cc(CO)nn2)C(=O)N2C(C(=O)O)=C(CSc3nnnn3C)CS[C@@H]21 | > 32 µg/mL | 10 µg/mL (≈ 20.1 µM) | > 32 µg/mL | 32 µg/mL (≈ 64.3 µM) | 369 nM | 16 µg/mL (≈ 32.2 µM) | > 32 µg/mL | > 32 µg/mL | 16 µg/mL (≈ 32.2 µM) | > 32 µg/mL | > 32 µg/mL | 10 | –
8 | CO[C@@]1(NC(=O)Cn2cc(-c3cccc4cccnc34)nn2)C(=O)N2C(C(=O)O)=C(CSc3nnnn3C)CS[C@@H]21 | > 32 µg/mL | > 40 µg/mL | > 32 µg/mL | 32 µg/mL (≈ 53.8 µM) | 472 nM | > 32 µg/mL | > 32 µg/mL | > 32 µg/mL | > 32 µg/mL | > 32 µg/mL | > 32 µg/mL | 100 | –
9 | CO[C@@]1(NC(=O)Cn2cc(-c3ccccc3)nn2)C(=O)N2C(C(=O)O)=C(CSc3nnnn3C)CS[C@@H]21 | > 32 µg/mL | 5 µg/mL (≈ 9.2 µM) | > 32 µg/mL | 32 µg/mL (≈ 58.9 µM) | 89 nM | 32 µg/mL (≈ 58.9 µM) | > 32 µg/mL | > 32 µg/mL | 32 µg/mL (≈ 58.9 µM) | > 32 µg/mL | > 32 µg/mL | >100000 | Active
10 | COc1ccc(-c2cn(CC(=O)N[C@]3(OC)C(=O)N4C(C(=O)O)=C(CSc5nnnn5C)CS[C@@H]43)nn2)cc1 | > 32 µg/mL | 10 µg/mL (≈ 17.4 µM) | > 32 µg/mL | 32 µg/mL (≈ 55.8 µM) | > 15000 nM | > 32 µg/mL | > 32 µg/mL | > 32 µg/mL | 32 µg/mL (≈ 55.8 µM) | > 32 µg/mL | > 32 µg/mL | 100 | –
11 | CO[C@@]1(NC(=O)Cn2cc(C(=O)O)nn2)C(=O)N2C(C(=O)O)=C(CSc3nnnn3C)CS[C@@H]21 | > 32 µg/mL | 20 µg/mL (≈ 39.1 µM) | > 32 µg/mL | ≤ 0.25 µg/mL | – | > 32 µg/mL | > 32 µg/mL | > 32 µg/mL | 16 µg/mL (≈ 31.3 µM) | > 32 µg/mL | > 32 µg/mL | 100 | –
12 | CO[C@@]1(NC(=O)Cn2cc(-c3cccc(F)c3)nn2)C(=O)N2C(C(=O)O)=C(CSc3nnnn3C)CS[C@@H]21 | > 32 µg/mL | 5 µg/mL (≈ 8.9 µM) | > 32 µg/mL | 32 µg/mL (≈ 57 µM) | 131 nM | > 32 µg/mL | > 32 µg/mL | > 32 µg/mL | 32 µg/mL (≈ 57 µM) | 13.2 µg/mL (≈ 23.5 µM) | > 32 µg/mL | 1000 | –
13 | CO[C@@]1(NC(=O)Cn2cc(-c3cccc(C(=O)O)c3)nn2)C(=O)N2C(C(=O)O)=C(CSc3nnnn3C)CS[C@@H]21 | > 32 µg/mL | 5 µg/mL (≈ 8.51 µM) | > 32 µg/mL | 32 µg/mL (≈ 54.5 µM) | 69 nM | 32 µg/mL (≈ 54.5 µM) | > 32 µg/mL | > 32 µg/mL | 8 µg/mL (≈ 13.6 µM) | > 32 µg/mL | > 32 µg/mL | 1000 | –
14 | CO[C@@]1(NC(=O)Cn2cc(-c3cccc4ccccc34)nn2)C(=O)N2C(C(=O)O)=C(CSc3nnnn3C)CS[C@@H]21 | > 32 µg/mL | 40 µg/mL (≈ 67.4 µM) | > 32 µg/mL | 8 µg/mL (≈ 13.5 µM) | 86 nM | > 32 µg/mL | > 32 µg/mL | > 32 µg/mL | 32 µg/mL (≈ 53.9 µM) | > 32 µg/mL | > 32 µg/mL | >100000 | –
15 | CO[C@@]1(NC(=O)Cn2cc(CCC(C)C)nn2)C(=O)N2C(C(=O)O)=C(CSc3nnnn3C)CS[C@@H]21 | > 32 µg/mL | 5 µg/mL (≈ 9.3 µM) | > 32 µg/mL | 32 µg/mL (≈ 59.5 µM) | 142 nM | > 32 µg/mL | > 32 µg/mL | > 32 µg/mL | 32 µg/mL (≈ 59.5 µM) | 16.1 µg/mL (≈ 29.9 µM) | > 32 µg/mL | 1000 | –
